Drawing on patent US10208064B2, “Inhibitors of the renal outer medullary potassium channel” (MERCK SHARP & DOHME CORP., priority 2014, dated 2019), this text covers IC50 for nine molecules.

Chain of ROMK (Kir1.1) channel (P48048 whole entry): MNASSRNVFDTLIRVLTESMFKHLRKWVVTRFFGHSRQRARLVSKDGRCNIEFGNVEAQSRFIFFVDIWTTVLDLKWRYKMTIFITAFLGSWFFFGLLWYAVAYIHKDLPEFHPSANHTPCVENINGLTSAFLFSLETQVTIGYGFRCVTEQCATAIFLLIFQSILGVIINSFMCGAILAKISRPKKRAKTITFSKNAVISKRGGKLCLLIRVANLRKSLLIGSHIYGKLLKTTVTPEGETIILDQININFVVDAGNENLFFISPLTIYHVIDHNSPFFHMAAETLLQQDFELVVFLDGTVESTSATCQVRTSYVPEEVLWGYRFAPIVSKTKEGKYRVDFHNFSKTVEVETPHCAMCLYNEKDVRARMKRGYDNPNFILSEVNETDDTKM

This assay has as its target ROMK (Kir1.1) channel (Homo sapiens (Human), UniProt P48048). The assay can be described thus: Thallium Flux Assay. In kind it is cell-based. As for the experimental part:
The following Thallium Flux Assay was performed on each of the final product compounds in the Examples.
A Thallium Flux Assay was performed on the compounds of the Examples. This assay has been described previously; see, e.g., PCT Published Application WO 2013/062900.
For `CC1=C(N2CCC3(CCN(C[C@@H](O)c4cc5c(cc4C4CC4)-c4nnnn4C5)CC3)C2=O)COC1=O` [Example 26, (S)-8-(2-(8-cyclopropyl-5H-tetrazolo[5,1-a]isoindol-7-yl)-2-hydroxyethyl)-2-(4-methyl-5-oxo-2,5-dihydrofuran-3-yl)-2,8-diazaspiro[4.5]decan-1-one], the IC50 (commonly the concentration needed to halve the response being measured) was determined as 82 nM.
`CC1=C(N2CCC3(CCN(CC(O)c4ccc5c(c4)[C@H](C)n4nnnc4-5)CC3)C2=O)COC1=O` (stereo partly drawn) [Example 27A, 8-(2-hydroxy-2-((S)-5-methyl-5H-tetrazolo[5,1-α]isoindol-7-yl)ethyl)-2-(4-methyl-5-oxo-2,5-dihydrofuran-3-yl)-2,8-diazaspiro[4.5]decan-1-one] yielded an IC50 of 87 nM.
Take `CC1=C(N2CCC3(CCN(CC(O)c4ccc5c(c4)[C@@H](C)n4nnnc4-5)CC3)C2=O)COC1=O` (stereo partly drawn) [Example 27B, 8-(2-hydroxy-2-((R)-5-methyl-5H-tetrazolo[5,1-α]isoindol-7-yl)ethyl)-2-(4-methyl-5-oxo-2,5-dihydrofuran-3-yl)-2,8-diazaspiro[4.5]decan-1-one]: the IC50 is 27 nM.
The result for `CC1=C(N2CCC3(CCN(C[C@H](O)c4ccc5c(c4)[C@@H](C)n4nnnc4-5)CC3)C2=O)COC1=O` [Example 27C, 8-((R)-2-hydroxy-2-((R)-5-methyl-5H-tetrazolo[5,1-a]isoindol-7-yl)ethyl)-2-(4-methyl-5-oxo-2,5-dihydrofuran-3-yl)-2,8-diazaspiro[4.5]decan-1-one] reads 36 nM; that for `CC1=C(N2CCC3(CCN(C[C@@H](O)c4ccc5c(c4)[C@@H](C)n4nnnc4-5)CC3)C2=O)COC1=O` [Example 27D, 8-((S)-2-hydroxy-2-((R)-5-methyl-5H-tetrazolo[5,1-a]isoindol-7-yl)ethyl)-2-(4-methyl-5-oxo-2,5-dihydrofuran-3-yl)-2,8-diazaspiro[4.5]decan-1-one], 29 nM; that for `CC1=C(N2CCC3(CCN([C@H](CO)c4ccc5c(ccc6nnnn65)c4)CC3)C2=O)COC1=O` [Example 28A, (S)-8-(2-hydroxy-1-(tetrazolo[1,5-a]quinolin-7-yl)ethyl)-2-(4-methyl-5-oxo-2,5-dihydrofuran-3-yl)-2,8-diazaspiro[4.5]decan-1-one], 44 nM.
As for `CC1=C(N2CCC3(CCN(C(CO)c4ccc5c(c4)CCc4nnnn4-5)CC3)C2=O)COC1=O` (stereo not drawn) [Example 29, 8-(1-(4,5-dihydrotetrazolo[1,5-a]quinolin-7-yl)-2-hydroxyethyl)-2-(4-methyl-5-oxo-2,5-dihydrofuran-3-yl)-2,8-diazaspiro[4.5]decan-1-one], the figure is 421 nM.
As to `CC1=C(N2CCC3(CCN(CCc4ccc5c(c4)Cn4nnnc4-5)CC3)C2=O)COC1=O` [Example 30, 8-(2-(5H-tetrazolo[5,1-a]isoindol-7-yl)ethyl)-2-(4-methyl-5-oxo-2,5-dihydrofuran-3-yl)-2,8-diazaspiro[4.5]decan-1-one], the IC50 came out at 6 nM.
For `CO[C@@H](CN1CCC2(CC1)CCN(C1=C(C)C(=O)OC1)C2=O)c1ccc2c(c1)Cn1nnnc1-2` [Example 31, (R)-8-(2-methoxy-2-(5H-tetrazolo[5,1-a]isoindol-7-yl)ethyl)-2-(4-methyl-5-oxo-2,5-dihydrofuran-3-yl)-2,8-diazaspiro[4.5]decan-1-one], the IC50 came out at 239 nM.
